Here are results for three compounds from patent US20210030758A1, “TREATMENT OF CANCERS HAVING DRIVING ONCOGENIC MUTATIONS” (G1 Therapeutics, Inc., priority 2018, published 2021).

The structures appear in SMILES notation.

A short description of data set [1]: thermal stress stability of solid form. Type of data set: physicochemical. Conditions: 60° C. for 7 days. The protocol:
(§1) Form B is stable under thermal stress of 60° C. for 7 days. […] In one embodiment isolated Compound IA Form B is stable for at least about 6, 7, 8, 9, 10, 11, 12, 14, 16, 18, 20, 22, or 24 months.

Data set [2] in a line: long-term stability study of solid form. Conditions: 25° C. and 60% relative humidity. Type of data set: physicochemical. As for the experimental part:
as §1

The nature of data set [3]: dynamic vapor sorption experiment. Type of data set: physicochemical. As to conditions: exposure to 90% relative humidity.
A further data set concerns NSCLC PDX models. The data set is described as follows: NSCLC PDX model panel, tumor growth inhibition. Type of data set: in vivo. As to conditions: for sensitivity of PDX models by genetic alteration: 100 mg/kg. As for the experimental part:
NSCLC PDX models (n=60) were treated for up to 28 days with daily oral doses of vehicle or Compound 1 (100 mg/kg). Tumor growth inhibition (TGI) was calculated when tumors reached pre-specified tumor burden or on day 28. Genetic alterations from pre-treated samples were evaluated using FoundationOne. 58% TGI was used as the responder/non-responder cutoff for correlation analysis.

Data set [4] deals with EML4-ALK NSCLC PDX tumors (Champions PDX model CTG-0852). Type of data set: in vivo. As to conditions: single agents, oral once daily, after 60 days; Compound I 50 mg/kg, crizotinib 20 mg/kg.
In data set [5] the test system is LC2/ad non-small cell lung cancer cells expressing an oncogenic CCDC6-RET fusion. Kind of data set: LC2/ad cell proliferation by CellTiter-Glo. Type of data set: cell-based. The protocol:
LC2/ad non-small cell lung cancer cells expressing an oncogenic CCDC6-RET fusion were dosed with increasing concentrations of Compound 1, a RET inhibitor selected from pralsetinib (BLU-667) or agerafenib (RXDX-105), or RET inhibitor+300 nM Compound 1. Cell proliferation was measured by CellTiter-Glo after six days.
In general terms: In ATP-based viability assays light output follows the ATP content of the culture.

Regarding `CC(C)N1CCN(c2ccc(Nc3ncc4cc5n(c4n3)C3(CCCCC3)CNC5=O)nc2)CC1` [Compound IA Form B], in data set [1], the “stability under thermal stress” value is given as “stable”. The “long-term stability, time stable” value in data set [2] was “at least 1 year”. Further, in data set [3], the “solid form after dynamic vapor sorption” value is “remained in Form B”.

The term TGI denotes the reduction of tumour growth relative to the control group. Read a high TGI as a stronger effect on the tumour. `CC(C)N1CCN(c2ccc(Nc3ncc4cc5n(c4n3)C3(CCCCC3)CNC5=O)nc2)CC1` [Compound I]: in the data set on NSCLC PDX models (NSCLC PDX models, adenocarcinoma, 100 mg/kg daily oral, up to 28 days), the “median TGI for adenocarcinoma” value is on record as 73%. In the data set with NSCLC PDX models (NSCLC PDX models, squamous cell carcinoma, 100 mg/kg daily oral, up to 28 days), the “median TGI for squamous cell carcinoma” value was determined as 66%. The “sensitivity of PDX models by genetic alteration” value with NSCLC PDX models (models with genetic alterations such as KRAS and EGFR) was “increased sensitivity”; in the data set on NSCLC PDX models (models with genetic alterations such as RB1), “resistance”. In data set [4], this compound showed a TGI of 87%.

For the compound `CO[C@]1(C(=O)N[C@@H](C)c2ccc(-n3cc(F)cn3)nc2)CC[C@H](c2nc(C)cc(Nc3cc(C)[nH]n3)n2)CC1` [pralsetinib, Pralsetinib], the “300 nM relative to the IC50 for cellular proliferation” value in data set [5] was more than 10 fold.
